Laboratory results published in paper doi:10.1101/2023.11.24.568596v1 (biorxiv, 2023).
One block for each compound: values may come before it.

Experiments:
Settings in all cases: binder
[1] = target: Wnk1 (Homo sapiens, UniProt Q9H4A3)
[2] = target: CaMK2b (Homo sapiens, UniProt Q13554)
[3] = target: T1, BMX (Homo sapiens, UniProt P51813)
T1 sequence (P51813 1-675): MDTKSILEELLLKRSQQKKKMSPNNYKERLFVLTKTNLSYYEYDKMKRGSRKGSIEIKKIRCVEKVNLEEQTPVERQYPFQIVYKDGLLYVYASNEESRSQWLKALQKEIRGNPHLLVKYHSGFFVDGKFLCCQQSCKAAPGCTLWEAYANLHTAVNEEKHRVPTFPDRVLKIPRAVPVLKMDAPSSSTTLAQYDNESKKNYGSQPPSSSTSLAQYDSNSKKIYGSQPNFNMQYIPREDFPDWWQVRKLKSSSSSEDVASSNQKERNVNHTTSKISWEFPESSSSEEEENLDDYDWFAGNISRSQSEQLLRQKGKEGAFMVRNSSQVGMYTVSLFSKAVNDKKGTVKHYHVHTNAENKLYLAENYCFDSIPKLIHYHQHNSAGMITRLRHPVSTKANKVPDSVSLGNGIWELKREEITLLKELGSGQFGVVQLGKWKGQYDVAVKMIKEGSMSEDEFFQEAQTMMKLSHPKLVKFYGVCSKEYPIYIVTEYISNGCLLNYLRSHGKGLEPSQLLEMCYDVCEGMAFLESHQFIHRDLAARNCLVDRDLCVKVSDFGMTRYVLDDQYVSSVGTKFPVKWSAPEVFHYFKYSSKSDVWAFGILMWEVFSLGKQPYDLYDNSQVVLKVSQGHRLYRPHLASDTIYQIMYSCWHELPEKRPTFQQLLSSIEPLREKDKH

[4] = target: GSK3B (Homo sapiens, UniProt P49841)
[5] = target: CK2a1 (Homo sapiens, UniProt P68400)
[6] = target: MARK3 (Homo sapiens, UniProt P27448)
[7] = target: PIM3 (Homo sapiens, UniProt Q86V86)
[8] = target: FLT1 (Homo sapiens, UniProt P17948)
[9] = target: T2, MER (Homo sapiens, UniProt Q12866)
T2 sequence (Q12866 1-999): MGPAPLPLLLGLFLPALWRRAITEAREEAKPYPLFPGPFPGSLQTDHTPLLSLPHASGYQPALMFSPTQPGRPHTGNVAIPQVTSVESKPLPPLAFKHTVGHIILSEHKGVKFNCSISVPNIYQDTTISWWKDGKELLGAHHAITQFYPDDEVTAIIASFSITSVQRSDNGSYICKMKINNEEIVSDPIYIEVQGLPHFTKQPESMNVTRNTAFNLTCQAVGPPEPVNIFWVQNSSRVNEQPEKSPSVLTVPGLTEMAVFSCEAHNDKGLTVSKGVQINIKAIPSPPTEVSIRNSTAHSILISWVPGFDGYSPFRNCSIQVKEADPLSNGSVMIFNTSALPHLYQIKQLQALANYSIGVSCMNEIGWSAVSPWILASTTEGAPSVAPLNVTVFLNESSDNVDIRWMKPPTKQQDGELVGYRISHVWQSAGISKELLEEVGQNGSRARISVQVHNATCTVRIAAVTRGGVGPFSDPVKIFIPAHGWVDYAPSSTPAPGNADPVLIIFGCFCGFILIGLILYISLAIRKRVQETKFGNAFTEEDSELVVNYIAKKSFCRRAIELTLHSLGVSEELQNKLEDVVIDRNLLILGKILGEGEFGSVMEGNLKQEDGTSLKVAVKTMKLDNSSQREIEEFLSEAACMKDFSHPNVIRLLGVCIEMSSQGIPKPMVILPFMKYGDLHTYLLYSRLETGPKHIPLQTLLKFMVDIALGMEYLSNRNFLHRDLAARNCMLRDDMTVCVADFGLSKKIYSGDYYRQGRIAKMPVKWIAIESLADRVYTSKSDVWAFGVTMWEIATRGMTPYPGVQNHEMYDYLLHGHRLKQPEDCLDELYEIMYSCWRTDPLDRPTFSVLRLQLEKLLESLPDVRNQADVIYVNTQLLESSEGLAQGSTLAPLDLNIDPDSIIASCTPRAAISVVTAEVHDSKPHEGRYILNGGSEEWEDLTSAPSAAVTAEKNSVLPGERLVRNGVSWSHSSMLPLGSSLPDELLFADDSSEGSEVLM

[10] = target: CK2a2 (Homo sapiens, UniProt P19784)
[11] = target: MSK1b (Homo sapiens, UniProt O75582)
Chain of MSK1b (O75582 whole entry): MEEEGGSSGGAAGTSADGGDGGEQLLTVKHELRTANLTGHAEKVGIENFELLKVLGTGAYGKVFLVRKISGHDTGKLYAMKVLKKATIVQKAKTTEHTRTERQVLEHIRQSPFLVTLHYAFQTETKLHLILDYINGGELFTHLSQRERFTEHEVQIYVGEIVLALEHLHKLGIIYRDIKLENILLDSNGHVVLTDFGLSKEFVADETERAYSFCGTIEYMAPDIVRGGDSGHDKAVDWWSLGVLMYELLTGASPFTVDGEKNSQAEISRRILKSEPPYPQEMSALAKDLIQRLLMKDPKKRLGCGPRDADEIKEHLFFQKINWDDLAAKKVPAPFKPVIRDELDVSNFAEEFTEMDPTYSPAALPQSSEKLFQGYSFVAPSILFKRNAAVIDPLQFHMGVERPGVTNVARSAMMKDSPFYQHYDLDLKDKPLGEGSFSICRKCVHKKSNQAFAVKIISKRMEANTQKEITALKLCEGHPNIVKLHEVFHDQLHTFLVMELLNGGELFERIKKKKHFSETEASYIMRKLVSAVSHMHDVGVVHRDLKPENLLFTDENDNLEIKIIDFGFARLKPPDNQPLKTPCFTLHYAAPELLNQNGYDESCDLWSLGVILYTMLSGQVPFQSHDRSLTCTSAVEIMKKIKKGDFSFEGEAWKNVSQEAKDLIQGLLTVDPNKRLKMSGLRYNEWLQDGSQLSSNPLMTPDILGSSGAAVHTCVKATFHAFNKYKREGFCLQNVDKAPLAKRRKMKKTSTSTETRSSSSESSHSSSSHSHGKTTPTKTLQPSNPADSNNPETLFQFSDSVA

Chain of MARK3 (P27448 whole entry): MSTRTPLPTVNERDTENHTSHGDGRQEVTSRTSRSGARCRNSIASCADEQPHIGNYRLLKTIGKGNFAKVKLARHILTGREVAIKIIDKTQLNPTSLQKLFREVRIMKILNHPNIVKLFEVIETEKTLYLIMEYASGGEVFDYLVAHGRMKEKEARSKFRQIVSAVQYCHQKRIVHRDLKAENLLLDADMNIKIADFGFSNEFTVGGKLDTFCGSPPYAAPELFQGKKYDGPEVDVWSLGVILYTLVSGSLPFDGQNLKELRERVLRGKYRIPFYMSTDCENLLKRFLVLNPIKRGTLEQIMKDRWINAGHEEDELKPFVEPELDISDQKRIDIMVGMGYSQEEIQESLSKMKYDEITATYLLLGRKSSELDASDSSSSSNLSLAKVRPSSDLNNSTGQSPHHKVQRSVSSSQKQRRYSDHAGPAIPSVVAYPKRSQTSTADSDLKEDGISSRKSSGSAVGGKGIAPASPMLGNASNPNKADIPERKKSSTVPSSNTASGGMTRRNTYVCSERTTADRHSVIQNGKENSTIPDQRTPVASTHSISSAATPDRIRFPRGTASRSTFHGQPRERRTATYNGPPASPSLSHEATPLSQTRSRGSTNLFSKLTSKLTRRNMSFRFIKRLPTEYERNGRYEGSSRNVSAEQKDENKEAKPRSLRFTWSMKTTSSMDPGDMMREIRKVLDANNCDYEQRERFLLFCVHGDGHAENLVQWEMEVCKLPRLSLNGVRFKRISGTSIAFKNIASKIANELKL
Chain of CK2a2 (P19784 whole entry): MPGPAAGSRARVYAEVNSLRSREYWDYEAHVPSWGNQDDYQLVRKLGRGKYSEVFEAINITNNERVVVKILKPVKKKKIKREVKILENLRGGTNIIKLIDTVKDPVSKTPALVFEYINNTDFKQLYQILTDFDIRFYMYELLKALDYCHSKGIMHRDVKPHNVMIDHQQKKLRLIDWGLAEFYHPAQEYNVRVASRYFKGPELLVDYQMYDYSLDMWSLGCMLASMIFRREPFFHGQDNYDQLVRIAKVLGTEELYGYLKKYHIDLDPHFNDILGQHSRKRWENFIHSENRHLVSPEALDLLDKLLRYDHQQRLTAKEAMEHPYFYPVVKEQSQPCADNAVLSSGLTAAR
Chain of CK2a1 (P68400 whole entry): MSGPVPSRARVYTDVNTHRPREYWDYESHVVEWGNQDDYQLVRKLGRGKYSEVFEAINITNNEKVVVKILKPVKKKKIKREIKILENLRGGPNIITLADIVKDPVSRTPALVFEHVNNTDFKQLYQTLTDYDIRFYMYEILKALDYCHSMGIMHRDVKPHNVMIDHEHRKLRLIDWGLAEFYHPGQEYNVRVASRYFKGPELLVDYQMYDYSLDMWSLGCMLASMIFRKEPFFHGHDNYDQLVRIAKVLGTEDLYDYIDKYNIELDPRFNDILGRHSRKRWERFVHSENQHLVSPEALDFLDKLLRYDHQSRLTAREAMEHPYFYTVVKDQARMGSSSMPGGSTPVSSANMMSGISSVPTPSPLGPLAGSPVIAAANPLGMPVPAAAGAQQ
Chain of CaMK2b (Q13554 whole entry): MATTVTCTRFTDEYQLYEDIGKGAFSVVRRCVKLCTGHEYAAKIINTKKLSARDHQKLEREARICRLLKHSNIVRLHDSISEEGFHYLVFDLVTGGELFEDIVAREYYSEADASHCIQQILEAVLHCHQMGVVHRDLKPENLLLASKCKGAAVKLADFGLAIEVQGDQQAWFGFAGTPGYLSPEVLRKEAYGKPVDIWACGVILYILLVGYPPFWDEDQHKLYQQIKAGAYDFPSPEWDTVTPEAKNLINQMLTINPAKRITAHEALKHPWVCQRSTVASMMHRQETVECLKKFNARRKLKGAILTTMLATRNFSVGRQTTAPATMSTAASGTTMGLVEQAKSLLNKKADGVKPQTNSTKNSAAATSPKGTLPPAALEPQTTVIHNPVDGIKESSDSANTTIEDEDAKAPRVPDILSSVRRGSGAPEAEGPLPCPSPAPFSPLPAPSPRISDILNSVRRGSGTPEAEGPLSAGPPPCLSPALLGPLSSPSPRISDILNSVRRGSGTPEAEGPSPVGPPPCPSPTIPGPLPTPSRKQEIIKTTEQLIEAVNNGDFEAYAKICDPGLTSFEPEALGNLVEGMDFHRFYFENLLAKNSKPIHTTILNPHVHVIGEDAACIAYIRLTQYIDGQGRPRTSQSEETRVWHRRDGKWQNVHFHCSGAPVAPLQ
Chain of FLT1 (P17948 whole entry): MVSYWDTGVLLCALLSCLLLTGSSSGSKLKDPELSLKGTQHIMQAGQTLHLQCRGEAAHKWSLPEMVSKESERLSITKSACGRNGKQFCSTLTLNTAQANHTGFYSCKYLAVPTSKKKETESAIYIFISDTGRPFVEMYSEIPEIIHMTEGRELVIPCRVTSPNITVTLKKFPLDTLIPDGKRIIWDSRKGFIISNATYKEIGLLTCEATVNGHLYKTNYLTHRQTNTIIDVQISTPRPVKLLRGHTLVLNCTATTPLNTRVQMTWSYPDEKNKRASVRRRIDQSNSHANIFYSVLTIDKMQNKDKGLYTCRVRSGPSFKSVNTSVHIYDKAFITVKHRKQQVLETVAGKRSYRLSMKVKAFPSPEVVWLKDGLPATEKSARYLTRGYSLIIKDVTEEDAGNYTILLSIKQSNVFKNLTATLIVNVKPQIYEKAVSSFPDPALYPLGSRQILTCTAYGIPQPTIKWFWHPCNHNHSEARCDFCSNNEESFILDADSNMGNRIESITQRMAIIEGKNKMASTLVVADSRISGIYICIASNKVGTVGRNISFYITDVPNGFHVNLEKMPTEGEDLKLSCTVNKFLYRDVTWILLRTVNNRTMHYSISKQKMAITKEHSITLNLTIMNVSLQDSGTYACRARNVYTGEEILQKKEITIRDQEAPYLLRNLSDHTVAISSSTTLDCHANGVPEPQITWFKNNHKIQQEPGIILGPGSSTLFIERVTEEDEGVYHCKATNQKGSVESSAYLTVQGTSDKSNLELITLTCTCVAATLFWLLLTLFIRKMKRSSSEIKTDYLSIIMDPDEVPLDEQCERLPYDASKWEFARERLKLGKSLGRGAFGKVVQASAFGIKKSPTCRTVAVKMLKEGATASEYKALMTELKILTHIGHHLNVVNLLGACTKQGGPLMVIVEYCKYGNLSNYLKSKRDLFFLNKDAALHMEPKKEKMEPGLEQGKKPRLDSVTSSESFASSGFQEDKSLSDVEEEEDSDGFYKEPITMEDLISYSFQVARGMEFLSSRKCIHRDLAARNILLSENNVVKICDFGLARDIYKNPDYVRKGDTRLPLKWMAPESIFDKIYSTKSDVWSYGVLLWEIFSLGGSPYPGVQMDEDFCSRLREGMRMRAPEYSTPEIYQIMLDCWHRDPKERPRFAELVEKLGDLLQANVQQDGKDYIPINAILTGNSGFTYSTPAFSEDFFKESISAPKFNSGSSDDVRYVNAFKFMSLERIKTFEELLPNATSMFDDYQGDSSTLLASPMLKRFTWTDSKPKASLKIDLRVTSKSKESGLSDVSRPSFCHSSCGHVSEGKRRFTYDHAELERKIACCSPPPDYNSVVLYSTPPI
Chain of GSK3B (P49841 whole entry): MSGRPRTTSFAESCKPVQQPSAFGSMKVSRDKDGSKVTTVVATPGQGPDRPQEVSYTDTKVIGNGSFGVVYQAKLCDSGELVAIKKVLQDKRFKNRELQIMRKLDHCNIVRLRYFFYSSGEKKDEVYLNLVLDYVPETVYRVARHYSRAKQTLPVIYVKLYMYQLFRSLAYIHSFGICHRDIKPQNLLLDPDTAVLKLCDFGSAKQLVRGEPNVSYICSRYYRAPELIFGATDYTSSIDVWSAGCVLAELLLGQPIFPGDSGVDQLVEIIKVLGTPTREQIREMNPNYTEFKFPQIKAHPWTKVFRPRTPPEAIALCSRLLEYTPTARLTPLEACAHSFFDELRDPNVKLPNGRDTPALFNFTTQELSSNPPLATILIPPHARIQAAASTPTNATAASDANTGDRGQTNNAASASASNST

dTm 33 [1]: 3.3 °C | dTm 33 [2]: -0.2 °C | dTm 33 [3]: 7.1 °C | dTm 33 [4]: 2.3 °C | dTm 33 [5]: -0.4 °C | dTm 33 [6]: 11.5 °C | dTm 33 [7]: 4.6 °C | dTm 33 [8]: 4.9 °C | dTm 33 [9]: 3.1 °C | dTm 33 [10]: -1.2 °C | dTm 33 [11]: 3.5 °C
Structure (SMILES): Cc1cccc(-c2ccc(-c3cc4cnc(Nc5ccc(F)c(CO)c5)nc4n(CCCCN)c3=O)c(Cl)c2)n1 [compound 33, 8-(4-Aminobutyl)-6-(2-chloro-4-(6-methylpyridin-2-yl)phenyl)-2-((4-fluoro-3-(hydroxymethyl)phenyl)amino)pyrido[2,3-d]pyrimidin-7(8H)-one]

dTm 34 [1]: 0.8 °C | dTm 34 [2]: -0.8 °C | dTm 34 [3]: 4.1 °C | dTm 34 [4]: 2.0 °C | dTm 34 [5]: 0.5 °C | dTm 34 [6]: 5.1 °C | dTm 34 [7]: 2.4 °C | dTm 34 [8]: 3.2 °C | dTm 34 [9]: 0.1 °C | dTm 34 [10]: 0.1 °C | dTm 34 [11]: 2.4 °C
Structure (SMILES): COc1ccc(O)c(Nc2ncc3cc(-c4ccc(-c5cccc(C)n5)cc4Cl)c(=O)n(CCCCN)c3n2)c1 [compound 34, 8-(4-Aminobutyl)-6-(2-chloro-4-(6-methylpyridin-2-yl)phenyl)-2-((2-hydroxy-5-methoxy-phenyl)amino)pyrido[2,3-d]pyrimidin-7(8H)-one]

dTm 35 [1]: 2.7 °C | dTm 35 [2]: -1.4 °C | dTm 35 [3]: 4.4 °C | dTm 35 [4]: -0.3 °C | dTm 35 [5]: -0.1 °C | dTm 35 [6]: 6.9 °C | dTm 35 [7]: -2.4 °C | dTm 35 [8]: 5.6 °C | dTm 35 [9]: 0.0 °C | dTm 35 [10]: 0.1 °C | dTm 35 [11]: 3.8 °C
Structure (SMILES): COc1cc(N2CCOCC2)ccc1Nc1ncc2cc(-c3ccc(-c4cccc(C)n4)cc3Cl)c(=O)n(CCCCN)c2n1 [compound 35, 8-(4-Aminobutyl)-6-(2-chloro-4-(6-methylpyridin-2-yl)phenyl)-2-((2-methoxy-4-morpholino-phenyl)amino)pyrido[2,3-d]pyrimidin-7(8H)-one]

dTm 36 [1]: 1.5 °C | dTm 36 [2]: -0.6 °C | dTm 36 [3]: 3.3 °C | dTm 36 [4]: 0.2 °C | dTm 36 [5]: 0.2 °C | dTm 36 [6]: 8.5 °C | dTm 36 [7]: -2.1 °C | dTm 36 [8]: 4.4 °C | dTm 36 [9]: -0.2 °C | dTm 36 [10]: -0.5 °C | dTm 36 [11]: 3.0 °C
Structure (SMILES): COc1cc(N2CCN(C)CC2)ccc1Nc1ncc2cc(-c3ccc(-c4cccc(C)n4)cc3Cl)c(=O)n(CCCCN)c2n1 [compound 36, 8-(4-Aminobutyl)-6-(2-chloro-4-(6-methylpyridin-2-yl)phenyl)-2-((2-methoxy-4-(4-methylpiperazin-1-yl)phenyl)amino)pyrido[2,3-d]pyrimidin-7(8H)-one]
